“Also recorded” adds a separate entry of the source. {P} = phosphate
Key:
[1] = test system: total p53 protein; test: Western blot of total p53 (DO-1); assay type: cell-based, human; conditions: by 36-48 hours, sustained through 72 hours; 40 μM TO, 100 μM pTT
Description: (§1) Western blot analysis of proteins from cells treated and harvested in parallel with DCF time course studies was conducted as described above. Membranes were reacted with antibodies to total p53/DO-1 (1:1000 dilution, Oncogene Research Products, Cambridge, Mass.), anti-phoso-p53 (Ser-15) (1:1000 dilution, Cell Signaling Technology, Beverly, Mass.), and p21/Cip1/Waf1 (1:500 dilution, Transduction Laboratories, Lexington, Ky.), followed by appropriate secondary antibodies diluted 1:2000.

[2] = test system: phospho-p53 (Ser-15); test: Western blot of activated p53 (serine-15 phosphorylation); assay type: cell-based, human; conditions: by 36-48 hours, sustained through 72 hours; 40 μM TO, 100 μM pTT
Description: as §1

[3] = test system: human newborn fibroblasts; test: Propidium iodide (PI) staining of nonviable cells; assay type: cell-based; conditions: doses 25-250% of standard dose (40 μM TO, 100 μM pTT); positive control 1 mM H2O2
Description: Propidium iodide (PI, Sigma) was used to stain nonviable cells for some experiments. PI stock solution (1 mg,/ml) was added to samples immediately after harvesting to achieve a final concentration of 2 μg/ml.
To better characterize the dose effects of different pTT and 11-base T-oligo doses, a dose response study was conducted. For each T-oligo the doses were 25-250% of the standard dose used (40 μM for TO and 100 μM for pTT). […] Panel C is a compilation of the maximum DCF peak shifts measured with each treatment: diluent, 250 μM pTT, 100 μM TO and 1 mM as the positive control. […] There is a significant difference in DCF fluorescence stimulated by the two treatments when the same doses were used (25, 40 and 100 μM) (2-way ANOVA, p=0.0038).

[4] = test system: tumor formation; conditions: nude mice repeatedly exposed to solar simulated UV; cited from earlier work
[5] = test system: SOD1 mRNA; test: Northern blot analysis of antioxidant enzyme mRNA: SOD1; assay type: cell-based, human; conditions: 100 μM pTT, 8-72 hours, three donors
Description: (§2) Cell culture followed previously published methods.^92 Primary human newborn dermal fibroblasts were cultured from neonatal circumcised foreskin specimens. The skin samples were treated overnight in a 0.25% trypsin solution at 4° C. to separate the epidermis from the dermis. The separated dermis was then cut into pieces and plated onto etched plastic tissue culture dishes. Primary culture medium consisted of DMEM supplemented with 10% bovine CS, 50 U/ml penicillin and 50 μg/ml streptomycin sulfate. […] Secondary culture medium consisted of DMEM supplemented with 10% CS.
(§3) Purified 5′-phosphorylated thymidine dinucleotides (pTT) (Midland Certified Reagents, Inc., Texas) purified by gel filtration and analyzed by mass spectroscopy, were obtained in lyophilized form. […] The stock solution was syringe filter-sterilized through a 0.2 μm pore filter and spectrophotometrically analyzed (absorbance at 260 and 280 nm) to determine the concentration, and frozen in aliquots at −20° C. […]
(§4) Cells were harvested in Trizol (Gibco BRL, Gaithersburg, Md.) and stored at −70° C. […] RNA solutions were measured by spectrophotometer readings at 260 nm and 280 nm to determine concentration and purity. […]
(§5) Northern and western films as well as stained membranes and pictures of ethidium bromide-stained gels were digitally scanned and analyzed by densitometry. […]

[6] = test system: GPX mRNA; test: Northern blot analysis of antioxidant enzyme mRNA: GPX; assay type: cell-based, human; conditions: 100 μM pTT, 8-72 hours
Description: as §2, §3, §4, §5

Row | Substance | total p53 (DO-1) protein response, TO vs pTT [1] | phospho-p53-ser15 response, TO vs pTT [2] | PI fluorescence (toxicity / nonviable cells) [3] | incidence of tumor formation [4] | SOD1 mRNA level compared to diluent [5] | GPX mRNA level compared to diluent [6]
1 | pGTTAGGGTTAG (5' {P}, sugars by position and backbone not given here) [TO] | greater than to pTT | greater than to pTT | less than that induced by the positive control; also recorded: comparable to diluent treatment | decreased the incidence of tumor formation | – | –
2 | 5′-phosphorylated thymidine dinucleotides [pTT] | – | – | less than that induced by the positive control; also recorded: comparable to diluent treatment | – | no difference between pTT- and diluent-treated cells | remain unchanged

From patent US20100286247A1, “Methods of Protection from Oxidative Stress” (Trustees of Boston University, priority 2005, published 2010)
